System: Murine neutrophils
Test: NET induction in response to nigericin in murine neutrophils
Type: cell-based, mouse
Parameters: dose or concentration left out as unconfirmed
Conditions: nigericin for 3 hours; FIG. 5E
Protocol: FIGS. 5A-J. Class I/II HDACs drive NET formation. • A) Quantification of extracellular DNA released by neutrophils treated, or not, with 1 μM GSK484 for 1 h and then stimulated with 1 μM PMA for 4 hours. Unstimulated, neutrophils not treated with drugs were used as a control. • B) Freshly purified human neutrophils were treated with the indicated HDAC inhibitors at different doses (0.08, 0.4, 2 and 10 μM) for 1 hour. Extracellular DNA release was assessed in the supernatant 3 hours after PMA stimulation. The dotted line represents the amount of DNA released from neutrophils treated with PMA alone. […] NETosis induction was measured as level of anti-CitH3 fluorescent signal. […] NET induction was measured as in (C). […] NETosis induction was measured as level of anti-CitH3 fluorescent signal. […] NET induction was measured as in (F). • H, I) Freshly isolated neutrophils from two different donors were treated with different doses of ricolinostat, citarinostat (10, 2, 0.4, 0.08 μM) or GSK484 (10, 5, 2 μM) for 1 h and then stimulated with 1 μM PMA. NET induction was measured as level of anti-CitH3 fluorescent signal (H) and by microscopy as number of cells positive for CitH3 signal per field of view (FOV) (I). […] NET induction was measured as level of anti-CitH3 fluorescent signal. […] Statistics were calculated using One-way ANOVA (A, E, I) and Two-way ANOVA (B, F, G, H, L). […]

In the case of O=C(CCCCCCNC(=O)c1cnc(N(c2ccccc2)c2ccccc2)nc1)NO [ricolinostat], the “NET induction in response to nigericin (anti-CitH3 signal)” value is reported as “inhibited NET induction”.
